experiment: Human HepG2 cell viability assay in 384 well format; assay type: toxicity, cell-based; parameters: dose 125 nL, time 70.5 hour; cytotoxicity at 70.5 h: concentration not given beside the values; conditions: HepG2 cells, read-out: Inhibition

SMILES | cytotoxicity at 70.5 h [%]
c1ncc2c(n1)CN(CC1CCCCO1)CC2 (centres undefined) | 6.75
COc1ccc(-c2nnc([C@H]3CCN(CC4CC4)C3)o2)cc1 | 2.78
CN1CCOC[C@H]1c1nc(-c2ccc(F)cc2F)c[nH]1 | -0.919
c1cc(-c2c[nH]c([C@@H]3COCCN3C3CCOCC3)n2)ccn1 | -0.86
CC1=C[C@@H](CC#N)[C@H](C(C)C)C[C@H]1CC(=O)N1CCN(C)CC1 | 13.1
COCCOc1ccnc(-c2noc([C@@H]3CCCN3CC(C)(C)C)n2)c1 | 2.83
c1ccc2c(Cc3nnc([C@H]4CCN(C5CCCCC5)C4)o3)c[nH]c2c1 | -0.596
O=S(=O)(NC[C@H]1C[C@@H]2CCN1C[C@@H]2CN1CCCC1)c1ccc(Cl)cc1 | 17
Cn1cncc1-c1nnc([C@H]2CCN(CC(C)(C)C)C2)o1 | 14
CN1CC[C@H](c2nnc(-c3cncn3C)o2)C1 | -0.523
c1cncc(-c2nnc([C@H]3CCN(CC4CCCCC4)C3)o2)c1 | -6.55
Fc1ccc(OCc2nnc([C@H]3CCN(Cc4cccnc4)C3)o2)cc1 | -6.19
CC(C)CCN1CC[C@H](c2nnc(Cc3c[nH]c4ccccc34)o2)C1 | 1.15
c1ccc2c(Cc3nnc([C@H]4CCN(CC5CC5)C4)o3)c[nH]c2c1 | -0.383
CN1C(=O)CO[C@H](c2ccc(NC(=O)Nc3ccccc3)cc2)[C@H]1CO | -7.02
F[C@@H]1CN(CC2CC2)C[C@@H]1OCc1nc2cnccc2[nH]1 | -0.16
F[C@@H]1CN(Cc2ccccc2)C[C@@H]1OCc1nc2cnccc2[nH]1 | 13.9
COc1ccccc1CN1C[C@@H](F)[C@@H](OCc2nc3ccccc3[nH]2)C1 | -0.935
CCNC(=O)NC[C@H]1COCc2nc3cc(OC)ccc3n21 | -10.9
Cc1cccc2c1nc1n2[C@@H](CNC2CCCCC2)COC1 | 8.3
O=C(C1CCOCC1)N1C[C@@H](F)[C@@H](OCc2nc3cc(F)ccc3[nH]2)C1 | -2.48
Cc1cc2nc(CO[C@H]3CN(C4CCN(C)CC4)C[C@H]3F)[nH]c2cc1C | -4.5
O=C(NC[C@H]1COCc2nc3cc(F)ccc3n21)c1cccnc1 | -2.79
Cc1ccc2[nH]c(CO[C@H]3CN(c4ccc(C#N)cn4)C[C@H]3F)nc2c1 | -3.04
CC(=O)N1CCC(N2CC[C@H](c3nc4cc(F)ccc4o3)C2)CC1 | 0.135
COC(=O)[C@@H]1Cc2ncn(C)c2CN1S(=O)(=O)c1ccc(OC)cc1 | -3.58

SMILES | cytotoxicity at 70.5 h [%]
CCCn1cnc2c1CN(C(=O)c1ccc(F)cc1)[C@H](C(=O)OC)C2 | -7.42
CCCn1cnc2c1CN(S(=O)(=O)c1ccc(F)cc1)[C@H](C(=O)OC)C2 | 12.5
CC[C@H]1CN2CC[C@H]1C[C@@H]2CNCc1ccc(N(C)C)cc1 | 26.4
CN1CCN(C[C@H]2CN3CC[C@H]2C[C@@H]3CNC(=O)c2ccco2)CC1 | -6.36
CN1CCC(N2CCC[C@H]2c2nc(-c3cncnc3N)no2)CC1 | -0.402
CC1=C[C@@H](CN2CCC(O)CC2)[C@H](C(C)C)C[C@H]1Cc1nnc(C)o1 | -4.6
CCS(=O)(=O)c1ccc2oc([C@H]3CCN(Cc4cccnc4)C3)nc2c1 | 9.25
CN(C)c1ccc(-c2nnc([C@H]3CCN(C4CCCCC4)C3)o2)cc1 | -4.32
COCC(=O)Nc1ccc([C@@H](O)[C@H]2COCC(=O)N2CC(C)C)cc1 | 8.86
CC(C)(C)c1cc(C[C@H]2CNCC[C@H]2CC(=O)NC2CCCCC2)no1 | 2.18
CC(C)N1C[C@H](O)C[C@H]1c1nc(-c2ccc(OC(F)(F)F)cc2)no1 | -3.17
O=C(NC[C@H]1OC[C@@H](NC2CCC(F)(F)CC2)[C@@H]1O)C1CCCC1 | -10.5
CC(C)N[C@@H]1CO[C@H](CNC(=O)c2ccccc2)[C@H]1O | -0.106
O=C(NC[C@H]1OC[C@@H](NCc2ccccn2)[C@@H]1O)c1ccc(F)cc1 | 2.33
Cc1ccc(S(=O)(=O)NC[C@H]2OC[C@@H](NCc3ccccn3)[C@@H]2O)cc1 | -6.39
CC(C)Cc1cc(CC2(NCc3ccccc3Cl)COC2)no1 | 4.27
CC(C)CNC[C@H]1O[C@H](Cc2cc(-c3ccccn3)on2)CC[C@@H]1O | 0.841
COCCN1C[C@H]2CN(C(=O)c3ccno3)CCN2C1=O | -6.26
O[C@H]1COCCN(Cc2cccc(C(F)(F)F)c2)C1 | -9.83
COCC(=O)NC[C@H]1OC[C@@H](NC2CCC(F)(F)CC2)[C@@H]1O | -8.37
CC[C@H]1CN(S(=O)(=O)c2ccccc2)CC[C@H]1CC(=O)O | 5.41
O=C([C@@H]1Cc2[nH]cnc2CN1C(=O)NC1CCCCC1)N1CCCC1 | -7.01
CC(=O)NC[C@@H]1C=C(C)[C@H](CC(=O)NCc2cccnc2)C[C@H]1C(C)C | 4.62
Fc1ccc(-c2c[nH]c([C@@H]3COCCN3)n2)cc1 | -9.31
CN1CCOC[C@H]1c1nc(-c2ccncc2)c[nH]1 | 1.37
O=C(NC[C@H]1OC[C@@H](NCc2ccccc2)[C@@H]1O)Nc1ccccc1 | -3.94

SMILES | cytotoxicity at 70.5 h [%]
CC(=O)N1CC[C@H]2NC(=O)N(Cc3ccccc3)C(=O)[C@H]21 | -1.45
Nc1ncncc1-c1noc([C@@H]2CCCN2CCCc2ccccc2)n1 | -6.26
CC(=O)N[C@H]1CCN2C(=O)[C@@H](Cc3c[nH]c4ccccc34)NC(=O)[C@H]12 | -13.3
Cc1cccc(-c2noc([C@@H]3C[C@@H](O)CN3Cc3ccc(CO)o3)n2)c1 | 0.167
COCc1cc(C[C@@H]2CC[C@H](O)[C@@H](CN(C)C)O2)no1 | -0.737
Cc1ccc(CN2C[C@H]3CN(Cc4ccccc4Cl)CCN3C2=O)cc1 | -9.42
CC(C)(C)CN1CCN2C(=O)N(C3CCCCC3)C[C@H]2C1 | -11.1
CC(C)(C)CN[C@@H]1CO[C@H](CNC(=O)C2CCCC2)[C@H]1O | -14
Cc1ccc(CNC2(Cc3cc(CO)on3)COC2)o1 | -1.63
CC(C)(C)CNC[C@H]1Cn2ccnc2CO1 | -4.98
O=C(CN1C(=O)CCC1=O)NCc1cc(C2CC2)n(C2CCCC2)n1 | -2.61
Cn1cnnc1S(=O)(=O)C1CCN(S(=O)(=O)c2ccc(Cl)s2)CC1 | 11.9
Cc1c(Cl)cccc1S(=O)(=O)N1CCC(S(=O)(=O)c2nncn2C)CC1 | 1.44
CNC(=O)CS(=O)(=O)C1CCN(S(=O)(=O)c2ccccc2Cl)CC1 | 23.7
CNC(=O)CS(=O)(=O)C1CCN(S(=O)(=O)c2cccc(C(C)=O)c2)CC1 | -6.78
Cc1csc(C(=O)N2CC(S(=O)(=O)C3CCCCC3)C2)c1 | -6.45
O=C(c1cnccn1)N1CC(S(=O)(=O)c2ccc(Cl)cc2)C1 | -4.33
Cc1cc(S(=O)(=O)N2CCC(N3CCC(O)C3)CC2)c(Cl)cc1Cl (centres undefined) | -4.51
O=C(Cc1cccs1)Nc1cnn(C2CCOC2)c1 (centres undefined) | 40.6
N#Cc1ccc(S(=O)(=O)Nc2cnn(C3CCOCC3)c2)cc1 | -1.54
O=C(O)c1cc(S(=O)(=O)Nc2cnn(C3CCOCC3)c2)ccc1F | -6.44
COC(CNC(=O)C1CC1)c1ccc(C)s1 (centres undefined) | 19.1
COC(CNC(=O)C1CCN(S(C)(=O)=O)CC1)c1ccc(C)s1 (centres undefined) | -12
COC(C)(CNS(=O)(=O)c1cccnc1)c1ccccc1F (centres undefined) | -18.1
COC(C)(CNS(=O)(=O)c1cnn(C)c1)c1ccccc1F (centres undefined) | -0.155
CCC(CNC(=O)C1CC1)(OC)c1ccccc1 (centres undefined) | 8.11

SMILES | cytotoxicity at 70.5 h [%]
CCOCC(=O)NCC(CC)(OC)c1ccccc1 (centres undefined) | -12.4
O=C(NCc1cccs1)C1CCCN(c2cc(-n3cncn3)ncn2)C1 (centres undefined) | -3.14
O=C(C1CC1)N1CCN(c2ccc(-n3cncn3)nn2)CC1 | -3.85
Cc1ccccc1C(=O)N1CCN(c2ccc(-n3cncn3)nn2)CC1 | -4.18
Nc1cccnc1N1CCC(C(F)(F)F)CC1 | 14.9
Cc1cncc(Oc2ccc(CN)cc2)n1 | -10.6
Cc1cncc(Oc2ccc(CO)cc2)n1 | -5.95
O=C(CC1CC1)N1CCC2(CC1)C(=O)NCCN2Cc1ccccc1 | 10.6
CCN1C(=O)C[C@@H]2[C@@H]1CCN2S(=O)(=O)c1ccc(OC)cc1 | 9.29
Cc1ccccc1CNC(=O)N1CC[C@@H]2CN(C)S(=O)(=O)[C@@H]2CC1 | 17.8
Cc1cc(C(=O)N[C@H]2CC[C@@]3(CCC(=O)N3CC3CC3)CC2)no1 | -15.5
O=C1CCC2(CCN(S(=O)(=O)c3ccccc3)CC2)N1CC1CC1 | -12.5
CCN1C(=O)CCC12CCCN(S(=O)(=O)c1cccc(C)c1)CC2 (centres undefined) | -2.78
O=C1CC2(CCN(CC3CCOC3)CC2)CN1Cc1cc(F)cc(F)c1 (centres undefined) | -6.96
CC[C@@]1(O)CCN(C(=O)c2ccc(SC)cc2)C[C@H]1O | 0.602
Cc1cccc2[nH]c(C3CCN(C(=O)c4ccnn4C)CC3)nc12 | 0.0948
Cc1cc(=O)[nH]c(NCCNC(=O)C(c2ccc(F)cc2)N(C)C)n1 (centres undefined) | 11.9
CCC[C@@H]1CN(S(=O)(=O)c2ccc(C)c(F)c2)C[C@H]1N(C)C | 0.773
CCCOCCCNc1nccc(-c2cn(C)nc2C)n1 | -4.32
O=C(NC[C@H]1OC[C@@H](NC2CCNCC2)[C@@H]1O)C1CCCC1 | -5.05
CN(C)C[C@@H]1CCC[C@@H]2CN(c3nccc(C(F)(F)F)n3)C[C@@H]21 | 23.3
CCN1CCC2(CN(C(=O)N(C)C)CC23CCN(CC2CC2)CC3)C1=O (centres undefined) | 18.4
CCN1CCC2(CN(C(C)=O)CC23CCN(CC2CC2)CC3)C1=O (centres undefined) | -5.77
Cc1cnc(N2CCC3(CCCCN3C)C2)nc1 (centres undefined) | -7.87
CN(C)C(=O)CN1CC[C@H]2CN(C3CCOCC3)C[C@@H]2C1=O | -4.31
CC(=O)N1CCC2(CC1)CN(CC(C)C)CC21CCNC1=O (centres undefined) | 13.6

Reference: ChEMBL document CHEMBL3507680, “University of Dundee, Gates Library screen for HepG2 cell viability”
